{"source": "patent US8093274B2", "about": "“Inhibitors of protein prenyltransferases” (The Regents of the University of California, priority 2006, dated 2012)", "key": {"[1]": {"target": "GGTase I (substrate RhoA) (Homo sapiens, UniProt P49354+P53609)", "experiment": "GGTase I filter-binding assay with RhoA as substrate", "assay_type": "biochemical", "settings": "for activity at 50 µM: 50 μM compound, DMSO = 100%, smaller numbers indicate better inhibition, second number of pair, read-out: % activity of GGTase I for protein RhoA in the presence of the compound; for IC50: FIG. 15, read-out: IC50 for the inhibition of GGTase I using RhoA as a substrate", "description": "(§1) The pilot library was screened for inhibitors of protein geranylgeranyltransferase type I. Protein prenyltransferase assays were carried out by using filter binding. Two different substrates, RhoA and K-Ras4B, were used for the assay. RhoA ends with the CaaL motif and is an exclusive substrate for GGTase I, while K-Ras4B ends with the CaaX motif and is modified by both GGTase I and FTase.\n(§2) The % activity of GGTase I was determined as follows: a working solution that contained each compound in DMSO at the concentration of 1 mM was prepared. The working solution was added to GGTase I reaction mixture so that the final concentration of the compound is 50 μM. GGTase I activity was assayed by incubating [^3H]GGPP with K-Ras4B or RhoA protein in the presence of GGTase I and examining radioactivity incorporated into the substrate protein by spotting onto a filter paper. After washing with TCA, ethanol and acetone, the radioactivity retained on the filter was determined by the use of a scintillation counter. GGTase I activity in the presence of DMSO was taken as a 100% value and the activity in the presence of the compound was shown as percent activity compared with the 100% value. […] For 6-aryl-4-mercapto-N-sulfonyl-piperidine-3-carboxylic acid 11 the 4-mercapto substituent appeared critical to endowing GGTase inhibitory activity. […] 4-Chlorobenzylthio substituent was the next best; 12 compounds out of 21 containing the 4-chlorobenzylthio moiety were active. 4-Benzylthio substituent was also good; 7 piperidines out of 21 bearing 4-benzylthio group were active. […] 19 imines (C15>C12=C41>C40>C01=C11>C05=C10=C30=C35=C37=C38>C02, C03, C04, C06, C39=C43) out of 21 appeared in the GGTIs. […] This corresponds to 47 6-aryl-4-mercapto-N-sulfonyl-piperidine-3-carboxylic acids out of 357 compounds.\n(§3) A collection of 138 heterocycles was screened for their ability to inhibit the activity of human GGTase-I to geranylgeranylate K-Ras4B or RhoA. Purified GGTase-1 was incubated with its substrate protein K-Ras4B or RhoA, [^3H]GGPP, and the 138 compounds. After 30 min, the degree of incorporation of tritiated geranylgeranyl groups was measured using a scintillation counter.\n(§4) The GGTase-I assay was carried out using RhoA as a substrate protein, GGTase-I (JENA Bioscience) and [3H]geranylgeranyl pyrophosphate. Incubation was for 30 min at 37 C. GGTase-H (or RabGGTase) assay was carried out using YPT1 as a substrate protein, GGTase-H (Calbiochem, San Diego, Calif.) plus REP1 (Calbiochem) and [3H]geranylgeranyl pyrophosphate. Incubation was for 30 min at 37 C. FIGS. 20D-20F show the three dimensional structure of GGTase I (D), FTsse (E) and GGTase II (F) which can be obtained from X-ray diffraction studies of protein crystals."}, "[2]": {"target": "GGTase I (substrate K-Ras4B) (Homo sapiens, UniProt P49354+P53609)", "experiment": "GGTase I filter-binding assay with K-Ras4B as substrate", "assay_type": "biochemical", "settings": "50 μM compound; DMSO = 100%; smaller numbers indicate better inhibition; first number of pair; read-out: % activity of GGTase I for protein K-Ras4B in the presence of the compound", "description": "as §1, §2, §3"}, "[3]": {"target": "T1, protein farnesyltransferase (FTase) (Rattus norvegicus, UniProt Q02293+Q04631)", "T1 construct": "purchased JENA Bioscience", "experiment": "Protein farnesyltransferase assay with K-Ras4B and [3H]FPP", "assay_type": "biochemical", "settings": "for inhibition of FTase activity: FIG. 16, concentration increased to 100 μM", "excerpt": "To further characterize the pilot library, inhibitors of protein farnesyltransferase were identified. This was accomplished by using K-Ras4B as a substrate protein, tritiated farnesylpyrophosphate ([^3H]FPP) and protein farnesyltransferase. See Finegold, A. A., Johnson, D. I., Farnsworth, C. C., Gelb, M. H., Judd, S. R., Glomset, J. A. and Tamanoi, F. (1991) Protein geranylgeranyltransferase of Saccharomyces cerevisiae is specific for Cys-Xaa-Xaa-Leu motif and requires the CDC43 gene product but not the DPRI gene product. Proc. Natl. Acad. Sci. USA 88, 4448-4452. […] On the other hand, the structure of the compounds P1-F11, P2-B7 and P2-E9 resemble those of GGTIs. The FTI P1-F11 resembles the GGTI P1-F10, while the FTI P2-B7 resembles the GGTI P2-C10. The FTI P2-E9 is similar to the GGTI P2-G3. Similarity of some GGTI and FTI compounds may point to common structural features between the two closely related enzymes. As described before, FTase and GGTase I have similar three-dimensional structures and a shared alpha subunit. On the other hand, FTase specific inhibitors may recognize a region(s) that is different between the two enzymes.\nVarying concentrations of the two compounds were added to each enzyme reaction. The FTase (protein farnesyltransferase) assay was carried out using K-Ras4B as a substrate protein, FTase (JENA Bioscience, San Diego, Calif.) and […] pyrophosphate. Incubation was for 30 min at 37 C."}, "GGTase-I": {"test_system": "GGTase-I", "experiment": "GGTase-I inhibition kinetics, double reciprocal plots", "assay_type": "biochemical", "settings": "varying GGPP with fixed RhoA", "description": "as §4\nThe graphs in FIG. 21 show double reciprocal plots obtained from substrate velocity curves for the inhibition of GGTase-I by P3-E5 (left) and P5-H6 (right). The upper figures show varying GGPP concentrations with a fixed RhoA protein concentration were used. The lower figures show varying RhoA protein concentrations with a fixed GGPP concentration was used. The following scale was used to prepare the graphs: Y-axis: 1/v, fmol/min. X-axis: 1/s, mM."}, "[4]": {"test_system": "geranylgeranylated Rheb (Rheb-CSVL) in HEK 293 cells", "experiment": "Geranylgeranylation of Rheb-CVSL in HEK 293 cells, mobility shift on Western blot", "assay_type": "cell-based, human", "settings": "HEK 293 cells; FIG. 33", "excerpt": "Finally, we investigated in vivo effects of compounds 22 (also known as UC-22) and 23 (also known as UC-23). Human embryonic kidney (HEK) 293 cells were transfected with the Rheb-CSVL construct that expresses the geranylgeranylated form of the Rheb protein. Inhibition of the geranylgeranylation of this protein can be detected from a shift in its mobility on SDS polyacrylamide gel; the unprocessed form appears as a slowly migrating band.\nHuman embryonic kidney (HEK) 293 cells expressing Myc-HA tagged-Rheb-CVSL (upper) or Myc-HA tagged-Rheb-WT (lower) were treated with P3-E5 for 48 hours and then lysed. The cell lysates were run on a SDS polyacrylamide gel and immunoblotted using anti-Myc or anti-Actin antibody. The descriptors P and U indicate processed and unprocessed Rheb, respectively.\nHuman embryonic kidney (HEK) 293 cells expressing Myc-HA tagged-Rheb-CVSL (upper) or Myc-HA tagged-Rheb-WT (lower) were treated with mP5-H6a (also referred to as mP5-H6), or GGTI-298 for 48 hours and then lysed. Lysates were run on a SDS polyacrylamide gel and immunoblotted with anti-Myc or anti-Actin antibody."}, "K562 cells": {"test_system": "K562 cells", "experiment": "Proliferation of K562 cells, cell counting kit-8", "assay_type": "cell-based, human", "settings": "72 hours; relative to DMSO control", "description": "K562 cells are a cell line of human erythroleukemia cells. The K562 cells were treated with P3-E5, P5-H6 or GGTI-298 (a known GGTI compound illustrated in FIG. 27) for 72 hours and then cell number was counted using cell counting kit-8 (Dojindo, Gaithersburg, Md.). Cell viability relative to the DMSO control and the known GGTI compound is plotted in FIG. 23."}, "GGTase I": {"target": "GGTase I (Homo sapiens, UniProt P49354+P53609)", "experiment": "GGTase I assay, substrate not specified or K-Ras4B and RhoA compared", "assay_type": "biochemical", "settings": "for inhibition of GGTase I: FIG. 16; for substrate preference of GGTase I inhibition (RhoA vs K-Ras4B), known GGTIs: FIG. 17; for GGTI activity in screen of 138 heterocycles: K-Ras4B or RhoA substrate, 30 min", "description": "as §1, §2, §3"}}, "data": [{"smiles": "CCCCCC[C@@H]1[C@@H](Sc2ccc(C)cc2)[C@@H](C(=O)O)[C@H](c2ccc(Cl)c(Cl)c2)N1S(=O)(=O)c1ccc(C)cc1", "values": [{"measurement": "activity at 50 µM", "setting": "[1]", "value": 9.2, "unit": "%"}, {"measurement": "activity at 50 µM", "setting": "[2]", "value": 21.3, "unit": "%"}]}, {"smiles": "CCCCCC[C@@H]1[C@@H](Sc2ccc(C)cc2)[C@@H](C(=O)O)[C@H](c2ccc(Cl)cc2)N1S(=O)(=O)c1ccccc1", "values": [{"measurement": "activity at 50 µM", "setting": "[1]", "value": 7.5, "unit": "%"}, {"measurement": "activity at 50 µM", "setting": "[2]", "value": 15, "unit": "%"}]}, {"smiles": "CC(C)CCS[C@H]1[C@@H](C(=O)O)[C@H](c2ccc(Cl)cc2)N(S(=O)(=O)c2ccccc2)[C@@H]1C(C)C", "values": [{"measurement": "activity at 50 µM", "setting": "[1]", "value": 5.9, "unit": "%"}, {"measurement": "activity at 50 µM", "setting": "[2]", "value": 28.1, "unit": "%"}]}, {"smiles": "CCCCCC[C@@H]1[C@@H](SC2CCCC2)[C@@H](C(=O)O)[C@H](c2ccc(C#N)cc2)N1S(=O)(=O)c1ccc(C)cc1", "values": [{"measurement": "activity at 50 µM", "setting": "[1]", "value": 7.4, "unit": "%"}, {"measurement": "activity at 50 µM", "setting": "[2]", "value": 20.1, "unit": "%"}]}, {"smiles": "Cc1ccccc1S(=O)(=O)N1[C@@H](c2ccc(Cl)cc2)C(C(=O)O)=C[C@H]1C(C)(C)C", "note": "(relative stereo) [P5-H6]", "values": [{"measurement": "activity at 50 µM", "setting": "[1]", "value": 5.3, "unit": "%"}, {"measurement": "specificity of GGTase I inhibition", "setting": "[1]; compared with FTase and GGTase-II, varying concentrations, FIGS. 20A-20C", "value": "specifically inhibit GGTase I"}, {"measurement": "activity at 50 µM", "setting": "[2]", "value": 13.3, "unit": "%"}, {"measurement": "inhibition of FTase", "setting": "[3]; at concentrations at which they inhibited GGTase-I by more than 90%", "value": "did not inhibit FTase"}, {"measurement": "mode of inhibition of GGTase-I", "setting": "GGTase-I", "value": "compete with a substrate protein but do not compete with GGPP"}, {"measurement": "inhibition of geranylgeranylation of Rheb-CSVL within the cell", "setting": "[4]", "value": "inhibit geranylgeranylation within the cell"}, {"measurement": "inhibition of proliferation of K562 cells", "setting": "K562 cells", "value": "inhibit proliferation of K562 cells"}]}, {"smiles": "Cn1cncc1CN1C[C@@H](Cc2ccccc2)N(S(=O)(=O)c2cccs2)Cc2cc(C#N)ccc21", "note": "[BMS225975, reference compound]", "values": [{"measurement": "inhibition of GGTase I", "setting": "GGTase I", "value": "does not inhibit GGTase I"}, {"measurement": "inhibition of FTase activity", "setting": "[3]", "value": "inhibits FTase"}]}, {"smiles": "COC(=O)[C@H](CC(C)C)NC(=O)c1ccc(NC[C@@H](N)CS)cc1-c1cccc2ccccc12", "note": "[GGTI-298, reference compound]", "values": [{"measurement": "IC50", "setting": "[1]", "value": 1.6, "unit": "µM"}, {"measurement": "inhibition of GGTase I", "setting": "GGTase I", "value": "inhibits GGTase I"}, {"measurement": "substrate preference of GGTase I inhibition (RhoA vs K-Ras4B), known GGTIs", "setting": "GGTase I", "value": "inhibit RhoA-driven GGTase I activity slightly better than K-Ras4B-driven GGTase I activity"}, {"measurement": "inhibition of FTase activity", "setting": "[3]", "value": "little inhibition was observed with FTase"}]}, {"smiles": "COC(=O)C(CC(C)C)NC(=O)c1ccc(NCc2cnc[nH]2)cc1-c1ccccc1C", "note": "(centres unmarked) [GGTI-2166, reference compound]", "values": [{"measurement": "IC50", "setting": "[1]", "value": 0.5, "unit": "µM"}, {"measurement": "substrate preference of GGTase I inhibition (RhoA vs K-Ras4B), known GGTIs", "setting": "GGTase I", "value": "inhibit RhoA-driven GGTase I activity slightly better than K-Ras4B-driven GGTase I activity"}]}, {"smiles": "O=C(O)C1=CCC(c2ccc(Cl)cc2)N(S(=O)(=O)c2ccc(Cl)cc2)[C@H]1c1cccc(Cl)c1", "note": "(some centres unmarked) [P3-D9]", "values": [{"measurement": "activity at 50 µM", "setting": "[1]", "value": 26.7, "unit": "%"}, {"measurement": "IC50", "setting": "[1]", "value": 5, "unit": "µM"}, {"measurement": "activity at 50 µM", "setting": "[2]", "value": 33.1, "unit": "%"}, {"measurement": "inhibition of FTase activity", "setting": "[3]", "value": "no inhibition of FTase activity was observed"}]}, {"smiles": "CC[C@@H]1C=C(C(=O)O)[C@H](c2ccc(F)cc2)N1S(=O)(=O)c1ccc(C)cc1", "note": "[compound 1]", "values": [{"measurement": "GGTI activity in screen of 138 heterocycles", "setting": "GGTase I", "value": "identified as GGTIs"}]}, {"smiles": "Cc1ccc(S(=O)(=O)N2[C@@H](c3ccccc3)C(C(=O)O)=CC[C@H]2c2ccc(F)cc2)cc1", "note": "[compound 2]", "values": [{"measurement": "GGTI activity in screen of 138 heterocycles", "setting": "GGTase I", "value": "identified as GGTIs"}]}]}
